The NIST ThermoML archive (doi:10.1021/je900285w)
Numbers after ± are expanded uncertainties.

Tests used:
[1] = molar heat capacity at constant pressure; details: 101.33 kPa, Crystal
[2] = Crystal; DTA
[3] = Molar enthalpy of transition or fusion; details: Crystal; DSC

OC[C@@H](O)[C@@H](O)[C@H](O)[C@H](O)CO [D-mannitol]
[1]
Details	molar heat capacity at constant pressure [J/K/mol]
80 K	70.46 ± 1.4
80.42 K	71.86 ± 1.4
84.12 K	75.82 ± 1.5
85 K	76.73 ± 1.5
87.06 K	79 ± 1.5
90 K	82.37 ± 1.6
90.04 K	82.17 ± 1.6
93.09 K	85.24 ± 1.7
95 K	87.51 ± 1.7
96.04 K	88 ± 1.7
99.05 K	90.89 ± 1.8
100 K	92.23 ± 1.8
102.11 K	93.72 ± 1.8
105 K	96.64 ± 1.8
105.11 K	96.44 ± 1.8
108.05 K	98.92 ± 1.9
110 K	100.8 ± 1.9
111.06 K	101.4 ± 1.9
114.14 K	104 ± 1.9
115 K	104.8 ± 1.9
117.16 K	106.5 ± 1.9
120 K	108.7 ± 2
120.11 K	109 ± 2
123.13 K	111.5 ± 2
125 K	112.5 ± 2
126.22 K	113.8 ± 2
129.26 K	116.1 ± 2.1
130 K	116.2 ± 2.1
132.27 K	118.9 ± 2.1
135 K	120 ± 2.1
135.24 K	120.9 ± 2.1
138.18 K	123 ± 2.1
140 K	123.8 ± 2.2
141.2 K	125.4 ± 2.2
144.28 K	127.8 ± 2.2
145 K	127.7 ± 2.2
147.31 K	129.9 ± 2.2
150 K	131.6 ± 2.3
150.31 K	132.2 ± 2.3
153.28 K	134.4 ± 2.3
155 K	135.6 ± 2.3
156.23 K	136.7 ± 2.3
159.25 K	138.8 ± 2.3
160 K	139.7 ± 2.4
162.37 K	141.7 ± 2.4
165 K	143.9 ± 2.4
165.49 K	143.2 ± 2.4
168.58 K	146.4 ± 2.4
170 K	148.2 ± 2.5
171.61 K	149.2 ± 2.5
174.59 K	150.8 ± 2.5
175 K	152.5 ± 2.5
177.6 K	152.9 ± 2.5
180 K	156.9 ± 2.6
180.59 K	156.6 ± 2.6
183.61 K	159.2 ± 2.6
185 K	161.4 ± 2.6
186.66 K	162.1 ± 2.6
189.7 K	165 ± 2.7
190 K	166 ± 2.7
192.75 K	168.2 ± 2.7
195 K	170.6 ± 2.7
195.81 K	170.5 ± 2.7
198.93 K	173.9 ± 2.8
200 K	175.2 ± 2.8
202.13 K	176.6 ± 2.8
205 K	179.9 ± 2.8
205.3 K	180.9 ± 2.9
208.4 K	184.3 ± 2.9
210 K	184.6 ± 2.9
211.46 K	187.3 ± 2.9
214.49 K	189.7 ± 3
215 K	189.3 ± 3
217.58 K	192.1 ± 3
220 K	193.9 ± 3
220.74 K	195.4 ± 3
223.88 K	198.8 ± 3.1
225 K	198.6 ± 3.1
226.99 K	202.7 ± 3.1
230 K	203.2 ± 3.1
230.03 K	204.2 ± 3.2
233.09 K	207.6 ± 3.2
235 K	207.8 ± 3.2
236.15 K	210.5 ± 3.2
239.22 K	213.4 ± 3.3
242.24 K	215.7 ± 3.3
245.33 K	217.7 ± 3.3
248.42 K	220 ± 3.3
251.42 K	221.4 ± 3.4
254.48 K	223.2 ± 3.4
257.61 K	226.2 ± 3.4
260.73 K	228 ± 3.4
263.83 K	230.7 ± 3.5
266.98 K	233.6 ± 3.5
270.15 K	236.1 ± 3.5
273.22 K	239.5 ± 3.6
276.28 K	242.1 ± 3.6
279.35 K	245.4 ± 3.7
282.41 K	248.6 ± 3.7
285.44 K	251.6 ± 3.7
288.45 K	253.1 ± 3.8
291.43 K	256 ± 3.8
294.39 K	259 ± 3.8
297.49 K	260.6 ± 3.8
300.61 K	262.6 ± 3.9
303.63 K	264.9 ± 3.9
306.66 K	266.7 ± 3.9
309.69 K	268.4 ± 3.9
312.78 K	270.6 ± 4
315.92 K	272.9 ± 4
319.06 K	275.3 ± 4
322.19 K	277.9 ± 4.1
325.3 K	280.3 ± 4.1
328.4 K	282.6 ± 4.1
331.49 K	284.8 ± 4.1
334.56 K	286.1 ± 4.2
337.63 K	289 ± 4.2
340.68 K	291.4 ± 4.2
343.78 K	293.3 ± 4.3
346.92 K	295.5 ± 4.3
350.05 K	297.6 ± 4.3
353.16 K	299.6 ± 4.3
356.26 K	301.3 ± 4.4
359.31 K	303.7 ± 4.4
362.51 K	305.8 ± 4.4
365.68 K	308.4 ± 4.4
368.86 K	310.2 ± 4.5
372.04 K	311.9 ± 4.5
375.21 K	314 ± 4.5
378.35 K	316.7 ± 4.5
381.44 K	319 ± 4.6
384.52 K	320.9 ± 4.6
387.64 K	322.7 ± 4.6

Details	Molar enthalpy of transition or fusion [kcal/mol]	Normal melting temperature [°C]
[2]	–	164.10 ± 0.43
[3]	13.1 ± 0.813	–
